Experimental data taken from ChEMBL document CHEMBL1131390, “Inhibition of lipid peroxidation mediated by indolizines” (Bioorg Med Chem Lett, 1998).

Organism: Rattus norvegicus
Assay: Compound was tested in vitro for inhibitory activity against lipid peroxidation after 30 minutes
Assay type: functional
Details: 0.5 h

Row | SMILES | IC50 [µM]
1 | CC(=O)Oc1c(-c2ccccc2)c(-c2ccccc2)n2ccc(C(C)=O)cc12 | 5.3
2 | CC(=O)Oc1c(-c2ccccc2)c(-c2ccccc2)n2ncccc12 | 3.1
3 | CC(=O)Oc1c(-c2ccccc2)c(-c2ccccc2)n2ccc(C=O)cc12 | 2.9

The next lines start with the values.

Row | IC50 [µM] | SMILES
4 | 11.8 | CC(=O)Oc1c(-c2ccccc2)c(-c2ccccc2)n2ccccc12
5 | 4.2 | COc1c(-c2ccccc2)c(-c2ccccc2)n2ccc(C=O)cc12
6 | 3.5 | CC(=O)Oc1c(-c2ccccc2)c(-c2ccccc2)n2cc(C(C)=O)ccc12
7 | 3.2 | O=Cc1ccn2c(-c3ccccc3)c(-c3ccccc3)c(OC(=O)Nc3ccccc3)c2c1
8 | 2.6 | COC(=O)Oc1c(-c2ccccc2)c(-c2ccccc2)n2ccc(C=O)cc12
9 | 2.5 | CC(=O)Oc1c(-c2ccccc2)c(-c2ccccc2)n2ccc(C(=O)c3ccccc3)cc12

Organism: Rattus norvegicus
Assay: Compound was tested in vitro for inhibitory activity against lipid peroxidation at concentration 100 uM
Assay type: functional, organism-based
Details: not given

Row | SMILES | inhibition [%]
10 | CCCCCCCCCCCCCCCC(=O)Oc1c(-c2ccccc2)c(-c2ccccc2)n2ccc(C=O)cc12 | 9
11 | CC(=O)Oc1c(-c2ccccc2)c(-c2ccccc2)n2ncc3ccccc3c12 | 28
